Assay results published in the NIST ThermoML archive (doi:10.1021/je7003758).
± gives the expanded uncertainty stated by the source.

Assay: xn = mol fraction of the nth substance listed
Conditions: 298.15 K, Liquid

CCCCCl [1-chlorobutane] + CN1CCCC1=O
Conditions	mass density [kg/m3]
10000 kPa, x2 = 0.5052	964.7 ± 0.2
10000 kPa, x2 = 0.6019	978.3 ± 0.2
10000 kPa, x2 = 0.7039	992.4 ± 0.2
10000 kPa, x2 = 0.9002	1019.8 ± 0.2
10100 kPa, x2 = 0.8011	1006.1 ± 0.2
10400 kPa, x2 = 0.4	950.1 ± 0.3
10500 kPa, x2 = 0.2002	921.1 ± 0.3
10500 kPa, x2 = 0.2974	935.3 ± 0.3
10500 kPa, x2 = 0.5052	965 ± 0.2
10500 kPa, x2 = 0.6019	978.6 ± 0.2
10500 kPa, x2 = 0.7039	992.7 ± 0.2
10500 kPa, x2 = 0.8011	1006.3 ± 0.2
10500 kPa, x2 = 0.9002	1020.1 ± 0.2
10600 kPa, x2 = 0.1004	906.4 ± 0.3
10900 kPa, x2 = 0.1004	906.7 ± 0.3
10900 kPa, x2 = 0.4	950.4 ± 0.3
11000 kPa, x2 = 0.2002	921.5 ± 0.3
11000 kPa, x2 = 0.2974	935.6 ± 0.3
11000 kPa, x2 = 0.5052	965.4 ± 0.2
11000 kPa, x2 = 0.6019	978.9 ± 0.2
11000 kPa, x2 = 0.7039	993 ± 0.2
11000 kPa, x2 = 0.8011	1006.6 ± 0.2
11000 kPa, x2 = 0.9002	1020.4 ± 0.2
11400 kPa, x2 = 0.2002	921.9 ± 0.3
11400 kPa, x2 = 0.7039	993.3 ± 0.2
11500 kPa, x2 = 0.1004	907.2 ± 0.3
11500 kPa, x2 = 0.2974	936 ± 0.3
11500 kPa, x2 = 0.4	950.8 ± 0.3
11500 kPa, x2 = 0.5052	965.7 ± 0.2
11500 kPa, x2 = 0.6019	979.3 ± 0.2
11500 kPa, x2 = 0.8011	1006.8 ± 0.2
11500 kPa, x2 = 0.9002	1020.6 ± 0.2
11900 kPa, x2 = 0.2974	936.3 ± 0.3
12000 kPa, x2 = 0.1004	907.6 ± 0.3
12000 kPa, x2 = 0.2002	922.4 ± 0.3
12000 kPa, x2 = 0.4	951.2 ± 0.3
12000 kPa, x2 = 0.5052	966 ± 0.2
12000 kPa, x2 = 0.6019	979.6 ± 0.2
12000 kPa, x2 = 0.7039	993.6 ± 0.2
12000 kPa, x2 = 0.8011	1007.1 ± 0.2
12000 kPa, x2 = 0.9002	1020.9 ± 0.2
12400 kPa, x2 = 0.4	951.6 ± 0.3
12400 kPa, x2 = 0.6019	979.8 ± 0.2
12400 kPa, x2 = 0.7039	993.9 ± 0.2
12500 kPa, x2 = 0.1004	908.1 ± 0.3
12500 kPa, x2 = 0.2002	922.8 ± 0.3
12500 kPa, x2 = 0.2974	936.8 ± 0.3
12500 kPa, x2 = 0.5052	966.4 ± 0.2
12500 kPa, x2 = 0.8011	1007.4 ± 0.2
12500 kPa, x2 = 0.9002	1021.1 ± 0.2
12900 kPa, x2 = 0.8011	1007.6 ± 0.2
13000 kPa, x2 = 0.1004	908.5 ± 0.3
13000 kPa, x2 = 0.2002	923.2 ± 0.3
13000 kPa, x2 = 0.2974	937.1 ± 0.3
13000 kPa, x2 = 0.4	951.9 ± 0.3
13000 kPa, x2 = 0.5052	966.7 ± 0.2
13000 kPa, x2 = 0.6019	980.2 ± 0.2
13000 kPa, x2 = 0.7039	994.2 ± 0.2
13000 kPa, x2 = 0.9002	1021.4 ± 0.3
13400 kPa, x2 = 0.7039	994.5 ± 0.2
13500 kPa, x2 = 0.1004	908.9 ± 0.3
13500 kPa, x2 = 0.2002	923.6 ± 0.3
13500 kPa, x2 = 0.2974	937.6 ± 0.3
13500 kPa, x2 = 0.4	952.3 ± 0.3
13500 kPa, x2 = 0.5052	967 ± 0.3
13500 kPa, x2 = 0.8011	1008 ± 0.2
13500 kPa, x2 = 0.9002	1021.7 ± 0.3
13600 kPa, x2 = 0.6019	980.6 ± 0.2
13900 kPa, x2 = 0.4	952.7 ± 0.3
14000 kPa, x2 = 0.2974	937.8 ± 0.3
14000 kPa, x2 = 0.5052	967.4 ± 0.3
14000 kPa, x2 = 0.7039	994.8 ± 0.2
14000 kPa, x2 = 0.8011	1008.2 ± 0.2
14000 kPa, x2 = 0.9002	1022 ± 0.3
14100 kPa, x2 = 0.1004	909.5 ± 0.3
14100 kPa, x2 = 0.2002	924.1 ± 0.3
14100 kPa, x2 = 0.6019	981 ± 0.2
14400 kPa, x2 = 0.4	953 ± 0.3
14400 kPa, x2 = 0.5052	967.7 ± 0.3
14400 kPa, x2 = 0.9002	1022.2 ± 0.3
14500 kPa, x2 = 0.1004	909.8 ± 0.3
14500 kPa, x2 = 0.2002	924.4 ± 0.3
14500 kPa, x2 = 0.2974	938.2 ± 0.3
14500 kPa, x2 = 0.6019	981.1 ± 0.2
14500 kPa, x2 = 0.7039	995.1 ± 0.2
14500 kPa, x2 = 0.8011	1008.5 ± 0.2
15000 kPa, x2 = 0.1004	910.2 ± 0.3
15000 kPa, x2 = 0.2002	924.7 ± 0.3
15000 kPa, x2 = 0.2974	938.6 ± 0.3
15000 kPa, x2 = 0.4	953.4 ± 0.3
15000 kPa, x2 = 0.5052	968 ± 0.3
15000 kPa, x2 = 0.6019	981.5 ± 0.2
15000 kPa, x2 = 0.8011	1008.8 ± 0.2
15000 kPa, x2 = 0.9002	1022.5 ± 0.3
15100 kPa, x2 = 0.7039	995.6 ± 0.2
15500 kPa, x2 = 0.1004	910.7 ± 0.3
15500 kPa, x2 = 0.2002	925.2 ± 0.3
15500 kPa, x2 = 0.2974	939 ± 0.3
15500 kPa, x2 = 0.4	953.8 ± 0.3
15500 kPa, x2 = 0.6019	981.8 ± 0.2
15500 kPa, x2 = 0.7039	995.7 ± 0.2
15500 kPa, x2 = 0.8011	1009.1 ± 0.2
15600 kPa, x2 = 0.5052	968.5 ± 0.3
15600 kPa, x2 = 0.9002	1022.8 ± 0.3
16000 kPa, x2 = 0.1004	911.1 ± 0.3
16000 kPa, x2 = 0.2002	925.6 ± 0.3
16000 kPa, x2 = 0.2974	939.4 ± 0.3
16000 kPa, x2 = 0.4	954.1 ± 0.3
16000 kPa, x2 = 0.5052	968.7 ± 0.3
16000 kPa, x2 = 0.6019	982.1 ± 0.2
16000 kPa, x2 = 0.7039	996 ± 0.2
16000 kPa, x2 = 0.8011	1009.3 ± 0.2
16000 kPa, x2 = 0.9002	1023 ± 0.3
16400 kPa, x2 = 0.2002	926 ± 0.3
16400 kPa, x2 = 0.2974	939.7 ± 0.3
16400 kPa, x2 = 0.6019	982.4 ± 0.2
16500 kPa, x2 = 0.1004	911.5 ± 0.3
16500 kPa, x2 = 0.4	954.4 ± 0.3
16500 kPa, x2 = 0.5052	969.1 ± 0.3
16500 kPa, x2 = 0.7039	996.3 ± 0.2
16500 kPa, x2 = 0.8011	1009.6 ± 0.2
16500 kPa, x2 = 0.9002	1023.2 ± 0.3
16900 kPa, x2 = 0.2974	940.1 ± 0.3
17000 kPa, x2 = 0.1004	911.9 ± 0.3
17000 kPa, x2 = 0.2002	926.3 ± 0.3
17000 kPa, x2 = 0.4	954.8 ± 0.3
17000 kPa, x2 = 0.5052	969.4 ± 0.3
17000 kPa, x2 = 0.6019	982.8 ± 0.2
17000 kPa, x2 = 0.7039	996.6 ± 0.2
17000 kPa, x2 = 0.8011	1009.9 ± 0.2
17000 kPa, x2 = 0.9002	1023.4 ± 0.3
17400 kPa, x2 = 0.2974	940.5 ± 0.3
17400 kPa, x2 = 0.8011	1010.2 ± 0.2
17500 kPa, x2 = 0.1004	912.3 ± 0.3
17500 kPa, x2 = 0.2002	926.7 ± 0.3
17500 kPa, x2 = 0.4	955.2 ± 0.3
17500 kPa, x2 = 0.5052	969.7 ± 0.3
17500 kPa, x2 = 0.6019	983 ± 0.2
17500 kPa, x2 = 0.7039	996.8 ± 0.2
17500 kPa, x2 = 0.9002	1023.8 ± 0.3
18000 kPa, x2 = 0.1004	912.7 ± 0.3
18000 kPa, x2 = 0.2002	927.1 ± 0.3
18000 kPa, x2 = 0.2974	940.8 ± 0.3
18000 kPa, x2 = 0.5052	970.1 ± 0.3
18000 kPa, x2 = 0.7039	997.2 ± 0.2
18000 kPa, x2 = 0.8011	1010.5 ± 0.2
18000 kPa, x2 = 0.9002	1024 ± 0.3
18100 kPa, x2 = 0.4	955.6 ± 0.3
18100 kPa, x2 = 0.6019	983.4 ± 0.2
18500 kPa, x2 = 0.1004	913.1 ± 0.3
18500 kPa, x2 = 0.2002	927.6 ± 0.3
18500 kPa, x2 = 0.4	955.8 ± 0.3
18500 kPa, x2 = 0.5052	970.3 ± 0.3
18500 kPa, x2 = 0.6019	983.6 ± 0.2
18500 kPa, x2 = 0.7039	997.5 ± 0.2
18500 kPa, x2 = 0.9002	1024.2 ± 0.3
18600 kPa, x2 = 0.2974	941.4 ± 0.3
18600 kPa, x2 = 0.8011	1010.8 ± 0.2
19000 kPa, x2 = 0.1004	913.6 ± 0.3
19000 kPa, x2 = 0.2002	928 ± 0.3
19000 kPa, x2 = 0.2974	941.7 ± 0.3
19000 kPa, x2 = 0.4	956.2 ± 0.3
19000 kPa, x2 = 0.5052	970.8 ± 0.3
19000 kPa, x2 = 0.6019	984 ± 0.2
19000 kPa, x2 = 0.8011	1011 ± 0.2
19000 kPa, x2 = 0.9002	1024.5 ± 0.3
19100 kPa, x2 = 0.7039	997.9 ± 0.2
19400 kPa, x2 = 0.1004	913.9 ± 0.3
19500 kPa, x2 = 0.2002	928.3 ± 0.3
19500 kPa, x2 = 0.2974	942.1 ± 0.3
19500 kPa, x2 = 0.4	956.6 ± 0.3
19500 kPa, x2 = 0.5052	971 ± 0.3
19500 kPa, x2 = 0.6019	984.3 ± 0.2
19500 kPa, x2 = 0.7039	998 ± 0.2
19500 kPa, x2 = 0.8011	1011.3 ± 0.2
19500 kPa, x2 = 0.9002	1024.8 ± 0.3
20000 kPa, x2 = 0.1004	914.5 ± 0.3
20000 kPa, x2 = 0.2002	928.7 ± 0.3
20000 kPa, x2 = 0.2974	942.6 ± 0.3
20000 kPa, x2 = 0.4	957 ± 0.3
20000 kPa, x2 = 0.5052	971.4 ± 0.3
20000 kPa, x2 = 0.6019	984.6 ± 0.2
20000 kPa, x2 = 0.7039	998.4 ± 0.2
20000 kPa, x2 = 0.8011	1011.6 ± 0.2
20000 kPa, x2 = 0.9002	1025.1 ± 0.3
